# Measurements taken from paper PMC11847541, “Liver fatty acid binding protein FABP1 transfers substrates to cytochrome P450 4A11 for catalysis” (The Journal of Biological Chemistry, 2025).
# Legend:
# P450 4A11 [1] = molecular target: T1, P450 4A11 (Homo sapiens, UniProt Q02928); assay: Ketoconazole trap experiment for lipid koff from P450 4A11; assay type: binding; design: made in house; host or cells: E. coli
# T1 sequence (Q02928 5-519): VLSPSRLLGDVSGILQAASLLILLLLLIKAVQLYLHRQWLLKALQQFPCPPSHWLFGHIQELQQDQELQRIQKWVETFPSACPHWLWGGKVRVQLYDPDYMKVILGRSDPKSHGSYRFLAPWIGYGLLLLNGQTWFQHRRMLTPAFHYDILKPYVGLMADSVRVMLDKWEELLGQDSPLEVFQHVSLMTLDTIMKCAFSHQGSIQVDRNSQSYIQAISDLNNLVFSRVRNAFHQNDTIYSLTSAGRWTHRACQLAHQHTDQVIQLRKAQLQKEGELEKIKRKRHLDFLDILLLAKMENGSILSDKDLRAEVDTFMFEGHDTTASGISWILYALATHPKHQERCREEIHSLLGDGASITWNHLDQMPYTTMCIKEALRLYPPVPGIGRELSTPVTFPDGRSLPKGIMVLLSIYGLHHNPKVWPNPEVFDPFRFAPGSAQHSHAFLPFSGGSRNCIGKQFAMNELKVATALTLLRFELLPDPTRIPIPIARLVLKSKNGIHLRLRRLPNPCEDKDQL
# Protocol: To assess the rates of lipid egress from P450 4A11 (k-1, k-3), lipids were tested in conjunction with the general P450 inhibitor ketoconazole in a “trap experiment” as we have recently described to estimate koff rates for P450–sterol complexes ([27], [28]). P450–lipid complexes were rapidly mixed with ketoconazole, and the spectral shift from 390 nm (substrate bound, type I) to 418 nm (inhibitor bound, type II) P450 was monitored over time (Fig. 9A, progression from blue to red curve). This spectral shift arises from the direct interaction of the azole nitrogen lone pair with the heme iron (forming a hexacoordinated heme species). This experiment is performed with an excess of ketoconazole (100 μM) to facilitate rapid capture of unliganded P450 yielded at the moment of lipid dissociation, such that ketoconazole kon approximates the lipid koff.
# (The concentration of lipid added during preincubation reflects the affinity of the complex determined in equilibrium binding titrations; Fig. 8). The first phase of each trace relates to the ketoconazole capture of the unliganded enzyme (the majority–but not all–P450 was substrate bound at equilibrium), and the second phase correlates to the capture of enzyme yielded by the egress of the bound lipid (i.e., estimate of koff). […] The rates extracted for the second phase (koff) were 0.070 ± 0.006 s^−1 (k-3) and 0.20 ± 0.01 s^−1 (k-1), respectively.
# Determination of P450 4A11 koff rates with lipids was performed using a ketoconazole “trap” experiment by adapting previously published protocols ([27], [28]). Solutions of (A) ketoconazole (200 μM) and (B) P450 4A11 (4 μM) and either palmitate (20 μM) or 16-OH palmitate (8 μM) were prepared (2 ml each, all in 100 mM potassium phosphate buffer [pH 7.4]) and loaded into the drive syringes of an OLIS stopped-flow spectrophotometer with the same procedure described for the P450 4A11 kon determination (aforementioned). The experiment was initiated by mixing equal volumes of each solution together, and the rate of ketoconazole binding to P450 is given by ΔA418-A390 (displacement of lipid [decrease in A390] because of ketoconazole binding [increase in A418]) and is a maximum value for the rate at which the P450–lipid complex dissociated (koff) (Fig. S14).
# Figure S14. Absorbance traces used to determine P450 4A11 palmitate koff rate. The basis of the ketoconazole trap experiment is the spectral transition from substrate-bound (“Type I” shift, A390 (blue trace)) to inhibitor-bound (“Type II” shift, A418 (red trace)) P450 (Fig. 9A). The formation of ketoconazole-bound P450 (inhibitor complex) from palmitate-bound P450 (substrate complex) is over the course of the experiment shown above. The rate of formation of inhibitor-bound P450 is subtracted from the rate of decay of substrate-bound P450, and the resulting plot (Fig. 9D) is fit to a biexponential equation to estimate the dissociation rate (koff) of palmitate from the P450 4A11.
# P450 4A11 [2] = molecular target: T1, P450 4A11; assay: Equilibrium binding titrations of P450 4A11 with lipids (heme Soret spectral shift); conditions: for P450 heme Soret spectral shift induced: P450 4A11
# Protocol: Affinity of palmitate and 16-OH palmitate for P450 4A11 (1 μM) was assessed by monitoring the blue shift (from ∼420 nm to ∼390 nm) of the P450 heme Soret band as a substrate binds and displaces the sixth axial heme ligand (H2O) to yield pentacoordinated heme (“type I” shift) ([26]).
# P450 4A11 (1 μM) was titrated with (A) palmitate and (B) 16-OH palmitate in a 1.0 cm pathlength cell. Difference plots were calculated from absorbance maxima (∼390 nm) and minima (∼420 nm), and the data were fit to a hyperbolic equation. The insets in each panel are the difference spectra between a cuvette that received the lipid substrate and a cuvette that received solvent alone. Each data point corresponds to one independent replicate.
# Equilibrium binding titrations with P450 4A11 (1 μM) were performed in buffer (100 mM potassium phosphate [pH 7.4]) as described previously ([44], [56]). Briefly, a baseline was first acquired on an OLIS-Cary 14 spectrophotometer set to scan from 350 to 500 nm in 1 cm glass cuvettes. […] The cuvettes were mixed with a plumper after additions, and spectra were recorded. The spectra were exported into Microsoft Excel software, and the absorbance values at 418 nm were subtracted from those at 390 nm and the values were plotted as a function of lipid concentration.
# Titration of P450 4A11 with DAUDA. The P450 concentration was 1 µM and the DAUDA concentration was varied using a geometric series from 1 nM to 10 µM. […] The increase in absorbance in the UV region is due to the strong chromophore in the DAUDA dansyl moiety (Fig. S8).
# [3] = P450 4A11 2 μM preincubated with lipid, ketoconazole 100 μM
"koff (P450 4A11 [1]; P450 4A11 2 μM preincubated with lipid, ketoconazole 100 μM, read-out: second phase rate = koff from P450 4A11)","Kd (P450 4A11 [1]; quotient of experimentally determined rates, read-out: Kd estimate for P450 4A11 as koff/kon)",Kd (P450 4A11 [2]),P450 heme Soret spectral shift induced (P450 4A11 [2]; listed as Palmitate),P450 heme Soret spectral shift induced (P450 4A11 [2]; listed as palmitate),Structure (SMILES),"first phase rate (k1), ketoconazole capture of unliganded enzyme (P450 4A11 [1]; [3])",second phase rate = koff from P450 4A11 (P450 4A11 [1]; [3]),kon to P450 4A11 (k3) (P450 4A11 [1]; calculated from koff and Kd),P450 heme Soret spectral shift induced (P450 4A11 [2]),"Kd (P450 4A11 [2]; read-out: Kd for P450 4A11, P450 4A11 1 μM, 100 mM potassium phosphate pH 7.4)"
–,–,–,–,–,"O=C(O)CCCCCCCCCCCCCCCO [16-OH Palmitate (C16), 16-hydroxypalmitate]",1.3 ± 0.4 s⁻¹,0.070 ± 0.006 (k-3) s^−1,2.6 × 10^5 (k3) M^−1 s^−1,reverse type I shift,0.27 ± 0.04 µM
0.2 ± 0.01 s⁻¹,4.8 µM,5.2 ± 1.6 µM,classical type I spectral shift,type I,"CCCCCCCCCCCCCCCC(=O)O [Palmitate (C16), palmitate]",2.9 ± 0.1 s⁻¹,–,–,–,–
